We go through one molecule from patent publication US10238756B2, “Lipid nanoparticles and uses thereof” (Tongli Biomedical Co., Ltd., priority 2015, dated 2019).

One may read the half-life as the time in which the quantity being followed falls by half.

A short description of data set [1]: Storage stability of ICG fluorescence in the dark at 4° C. Format: physicochemical. Particulars: for % ICG fluorescence (8 months): stored in the dark at 4° C. for 8 months, % of initial fluorescence intensity, mean ± SD. How it is done: (§1) Fluorescence. Fluorescence measurements were performed on a Victor3 V 1420-040 Multilabel Plate Reader (Perkin-Elmer, Waltham, Mass.) with a tungsten-halogen continuous wave lamp (75 W, spectral range of 320-800 nm) and excitation (769±41 nm) and emission (832±37 nm) filters (Semrock, Rochester, N.Y.) using 100μL of sample in flat bottom, untreated 96-well plates (Grenier Bio-one, Monroe, N.C.).
(§2) Light Exposure and Storage Stability. […] For storage stability (FIG. 12), samples were placed in the dark at 4° C. for up to 313 days. […] The time-dependent decay of ICG fluorescence was analyzed on the basis of an exponential decay model with GraphPad Prism version 6.0 (GraphPad Software, San Diego, Calif.). The data were expressed as t½ (half-life) and k (rate constant).

Data set [2] in a line: Light exposure stability of ICG fluorescence. Type of data set: physicochemical. The procedure: as §1, §2
Data set [3] has as its system lymph nodes and vessels in mice. The experiment in a line: In vivo NIR lymphatic imaging in mice after subcutaneous foot injection. Further details: species or system mouse. The conditions noted are these: for max NIRF intensity: mean ± SEM (N = 3-4). The procedure:
(§3) In Vivo NIR Lymphatic Imaging in Mice. Mice were kept under pathogen-free conditions, exposed to a 12 h light-dark cycle, and received food ad libitum prior to imaging. All procedures were approved by the University of Washington Institutional Animal Care and Use Committee. Mice were anesthetized with 1.5% isoflurane, shaved to remove fur, and placed in a supine position on a 37° C. heat pad underneath an IVIS Lumina II NIR CCD camera (Perkin Elmer, Waltham, Mass.). Precontrast images were taken to confirm the absence of autofluorescence. Forty microliters of ICG-LNPs or free ICG was injected subcutaneously into the top of both rear feet. Immediately following injections, both feet were placed under gentle even pressure. Images were acquired for up to 120 min prior to euthanasia by cervical dislocation under anesthesia, upon which the skin was surgically opened to perform lymph node imaging.

Data set [4] has as its system popliteal and sciatic lymph nodes. The experiment in a line: In vivo pharmacokinetics of fluorescence intensity in draining lymph nodes detected through skin. Particulars: subcutaneous, mouse foot, N = 3. How it is done:
as §3

In turn, `CC1(C)C(/C=C/C=C/C=C/C=C2\N(CCCCS(=O)(=O)O)c3ccc4ccccc4c3C2(C)C)=[N+](CCCCS(=O)(=O)[O-])c2ccc3ccccc3c21` [Free ICG, sodium 2-[7-[3,3-dimethyl-1-(4-sulfonatobutyl)benz[e]indolin-2-ylidene]hepta-1,3,5-trien-1-yl]-3,3-dimethyl-1-(4-sulfonatobutyl)benz] showed a half-life in data set [1] (buffer, stored in the dark at 4° C., exponential decay model, (95% CI)) of 28.6 h. The figures for the “% ICG fluorescence (8 months)” value in data set [1] and in data set [1] (listed as free ICG) were 0.3 +/− 0.2% and 0.3±0.2%, respectively. For the same molecule, in data set [1] (stored in the dark at 4° C., exponential decay model), the “k (rate constant)” value is 0.582 day⁻¹. The “fluorescence intensity, % of the initial value” in data set [2] (after 6 hours of light exposure, 2.0 μM ICG, overhead fluorescent light) was found to be 2.5±0.5%. For the same molecule, the half-life at 2 μM in data set [2] (aqueous solution (free ICG in solution), light exposure, exponential decay model) is 2.16 ± 0.3 min. Besides, the k in data set [2] (light exposure, exponential decay model) was 19.2 ± 2.7 h⁻¹; in data set [4] (popliteal LN through skin), 0.19 ± 0.17 h⁻¹. The “No. of nodes detected” value in data set [3] (Axillary) is recorded as 2; in data set [3] (Gastric), 1-2; in data set [3] (Medial iliac) it was 1-2; in data set [3] (Popliteal (Pop)), 1; in data set [3] (Sciatic) it was 0. The “max NIRF intensity” value in data set [3] (Axillary LN) is listed as 0.8 ± 0.1 10^−5 a.u; in data set [3] (Gastric LN), 2.5 ± 1.3 10^−5 a.u; in data set [3] (Medial iliac LN), 4.1 ± 1.6 10^−5 a.u; in data set [3] (Pop afferent vessel) it was 0.6 ± 0.2 10^−5 a.u; in data set [3] (Pop efferent vessel) it was 0.6 ± 0.1 10^−5 a.u; in data set [3] (Popliteal (Pop) LN) it was 4.7 ± 2.2 10^−5 a.u. Also, in data set [3] (Sciatic LN), the “max NIRF intensity” value is given as 0.6 ± 0.1 10^−5 a.u. In addition, the “ICG intensity mean of the popliteal lymph node” value in data set [3] (image collected below the skin, six minutes, 0.5 nmol of ICG subcutaneously in foot) is listed as 37.0. Further, in data set [4] (fluorescence intensity in 1st draining lymph node (popliteal LN) through skin), the AUC0-2 hr was 61.65 ± 34.83 a.u.*min. Besides, in data set [4] (popliteal LN through skin), the Intensitymax came out at 0.66 ± 0.42 a.u.
